Columns and labels:
Assay type in all cases: in vivo
[1] = test system: barnyardgrass (Echinochloa crus-galli); assay: Test B preemergence
In short: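 Greenhouse test: chemicals are formulated in a surfactant-containing non-phytotoxic solvent and applied either preemergence to planted seeds or postemergence to plants 2 to 18 cm tall. Response is rated visually versus controls after 13 to 15 days, 0 meaning no effect and 100 complete control.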

[2] = test system: crabgrass (Digitaria sanguinalis); assay: Test C preemergence
In short: (§1)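 Pre- and postemergence treatments used a non-phytotoxic solvent/surfactant formulation; post-treated plants measured 2 to 18 cm. Greenhouse hold 12–14 d; % control estimated visually relative to controls.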

[3] = test system: morningglory (Ipomoea hederacea); assay: Test C preemergence
In short: as §1

[4] = test system: woolly cupgrass (Eriochloa villosa); assay: Test C preemergence
In short: as §1

[5] = test system: pigweed (Amaranthus retroflexus); assay: Test C preemergence
In short: as §1

[6] = test system: corn (Zea mays); assay: Test C preemergence
In short: as §1

[7] = test system: bermudagrass (Cynodon dactylon); assay: Test C preemergence
In short: as §1

[8] = test system: johnsongrass (Sorghum halepense); assay: Test C preemergence
In short: as §1

[9] = test system: cocklebur (Xanthium strumarium); assay: Test C preemergence
In short: as §1

[10] = test system: velvetleaf (Abutilon theophrasti); assay: Test C preemergence
In short: as §1

[11] = test system: goosegrass (Eleusine indica); assay: Test C preemergence
In short: as §1

[12] = test system: Nightshade; assay: Test C preemergence
[13] = test system: soybean (Glycine max); assay: Test C preemergence
In short: as §1

[14] = test system: kochia (Kochia scoparia); assay: Test C preemergence
In short: as §1

[15] = test system: giant foxtail (Setaria faberii); assay: Test C preemergence
In short: as §1

[16] = test system: lambsquarters (Chenopodium album); assay: Test C preemergence
In short: as §1

[17] = test system: yellow nutsedge (Cyperus esculentus); assay: Test C preemergence
In short: as §1

[18] = Rate 125 g/ha, scale 0 to 100, 0 no effect, 100 complete control
[19] = preemergence, Rate 31 g/ha, scale 0 to 100
[20] = preemergence, Rate 62 g/ha, scale 0 to 100
[21] = preemergence, Rate 250 g/ha, scale 0 to 100, 0 no effect, 100 complete control

Cc1cc(C)nc(N2CCC(n3ccc(C(C)(C)C)n3)C2=O)c1 (centres unmarked) [Compound 138]
60: Plant response rating, Cupgrass, Woolly [4, 18] | Plant response rating, Bermudagrass [7, 19] | Plant response rating, Soybean [13, 18] | Plant response rating, Kochia [14, 19]
40: Plant response rating, Cupgrass, Woolly [4, 20] | Plant response rating, Johnsongrass [8, 21] | Plant response rating, Nutsedge [17, 21]
20: Plant response rating, Crabgrass [2, 19] | Plant response rating, Goosegrass [11, 19]
50: Plant response rating, Pigweed [5, 18] | Plant response rating, Pigweed [5, 21] | Plant response rating, Nightshade [12, 18] | Plant response rating, Foxtail, Giant [15, 19]
90: Plant response rating, Goosegrass [11, 18] | Plant response rating, Nightshade ([12]; Rate 250 g/ha, scale 0 to 100, 0 no effect, 100 complete control) | Plant response rating, Kochia [14, 20]
70: Plant response rating, Crabgrass [2, 20] | Plant response rating, Bermudagrass [7, 18] | Plant response rating, Bermudagrass [7, 20]
100: Plant response rating, Barnyardgrass ([1]; Preemergence, Rate 500 g/ha, scale 0 to 100, 0 no effect, 100 complete control) | Plant response rating, Crabgrass [2, 18] | Plant response rating, Crabgrass [2, 21] | Plant response rating, Cupgrass, Woolly [4, 21] | Plant response rating, Bermudagrass [7, 21] | Plant response rating, Goosegrass [11, 21] | Plant response rating, Soybean [13, 21] | Plant response rating, Kochia [14, 18] | Plant response rating, Kochia [14, 21] | Plant response rating, Foxtail, Giant [15, 18] | Plant response rating, Foxtail, Giant [15, 21] | Plant response rating, Lambsquarters [16, 18] | Plant response rating, Lambsquarters [16, 19] | Plant response rating, Lambsquarters [16, 20] | Plant response rating, Lambsquarters [16, 21]
80: Plant response rating, Morningglory [3, 18] | Plant response rating, Morningglory [3, 21] | Plant response rating, Goosegrass [11, 20] | Plant response rating, Foxtail, Giant [15, 20]
0: Plant response rating, Barnyardgrass ([1]; preemergence, Rate 125 g/ha, scale of 0 to 100 where 0 is no effect and 100 is complete control, 13 to 15 days) | Plant response rating, Cupgrass, Woolly [4, 19] | Plant response rating, Pigweed [5, 19] | Plant response rating, Corn [6, 18] | Plant response rating, Corn [6, 19] | Plant response rating, Corn [6, 20] | Plant response rating, Johnsongrass [8, 19] | Plant response rating, Johnsongrass [8, 20] | Plant response rating, Cocklebur [9, 18] | Plant response rating, Cocklebur [9, 19] | Plant response rating, Cocklebur [9, 20] | Plant response rating, Cocklebur [9, 21] | Plant response rating, Velvetleaf [10, 18] | Plant response rating, Velvetleaf [10, 19] | Plant response rating, Velvetleaf [10, 20] | Plant response rating, Velvetleaf [10, 21] | Plant response rating, Nightshade ([12]; Rate 31 g/ha, scale 0 to 100) | Plant response rating, Nightshade ([12]; Rate 62 g/ha, scale 0 to 100) | Plant response rating, Nutsedge [17, 18] | Plant response rating, Nutsedge [17, 19] | Plant response rating, Nutsedge [17, 20]
30: Plant response rating, Morningglory [3, 19] | Plant response rating, Morningglory [3, 20] | Plant response rating, Pigweed [5, 20] | Plant response rating, Corn [6, 21] | Plant response rating, Johnsongrass [8, 18] | Plant response rating, Soybean [13, 20]

— US7138361B2, “Herbicidal heterocycles” (E. I. du Pont de Nemours and Company, priority 2000, dated 2006)
